Laboratory results reported in ChEMBL document CHEMBL1123050, “New cysteamine (2-chloroethyl)nitrosoureas. Synthesis and preliminary antitumor results” (1985).

Experiments:
Mus musculus [1] = assay: Antitumor activity was evaluated against L1210 leukemia, injected intravenously at a dose 40-250 umol/kg; assay type: functional
Mus musculus [2] = assay: Antitumor activity was evaluated against L1210 leukemia, injected intraperitoneally at a dose 80 umol/kg; infinity-50-100%survivals; assay type: functional, organism-based
Mus musculus [3] = assay: Antitumor activity was evaluated against L1210 leukemia, injected intraperitoneally at a dose 125 umol/kg; infinity-50-100%survivals; assay type: functional, organism-based
Mus musculus [4] = assay: Antitumor activity was evaluated against L1210 leukemia, injected intraperitoneally at a dose 165 umol/kg; infinity-50-100%survivals; assay type: functional, organism-based
Mus musculus [5] = assay: Antitumor activity was evaluated against L1210 leukemia, injected intravenously at a dose 165 umol/kg; infinity-50-100%survivals; assay type: functional, organism-based
Mus musculus [6] = assay: Antitumor activity was evaluated against L1210 leukemia, injected intravenously at a dose 210 umol/kg; infinity-50-100%survivals; assay type: functional, organism-based
Mus musculus [7] = assay: Antitumor activity was evaluated against L1210 leukemia, injected intravenously at a dose 125 umol/kg; infinity-50-100%survivals; assay type: functional, organism-based
Mus musculus [8] = assay: Number of survivors/ number of animals tested at the dose of 40 mg/Kg, iv; 0/6; assay type: functional
Mus musculus [9] = assay: Number of survivors/ number of animals tested at the dose of 80 mg/Kg, ip; 5/6; assay type: functional
Mus musculus [10] = assay: Number of survivors/ number of animals tested at the dose of 80 mg/Kg, iv; 0/6; assay type: functional
Mus musculus [11] = assay: Number of survivors/ number of animals tested at the dose of 235 mg/Kg, ip; 0/6; assay type: functional
Mus musculus [12] = assay: Number of survivors/ number of animals tested at the dose of 235 mg/Kg, iv; 5/6; assay type: functional
Mus musculus [13] = assay: Number of survivors/ number of animals tested at the dose of 40 mg/Kg, ip; 0/6; assay type: functional
Mus musculus [14] = assay: Number of survivors/ number of animals tested at the dose of 115 mg/Kg, ip; 6/6; assay type: functional
Mus musculus [15] = assay: Number of survivors/ number of animals tested at the dose of 115 mg/Kg, iv; 6/6; assay type: functional
Mus musculus [16] = assay: Number of survivors/ number of animals tested at the dose of 155 mg/Kg, ip; 6/6; assay type: functional
Mus musculus [17] = assay: Number of survivors/ number of animals tested at the dose of 155 mg/Kg, iv; 6/6; assay type: functional
Mus musculus [18] = assay: Number of survivors/ number of animals tested at the dose of 195 mg/Kg, ip; 5/6; assay type: functional
Mus musculus [19] = assay: Number of survivors/ number of animals tested at the dose of 195 mg/Kg, iv; 5/6; assay type: functional
Mus musculus [20] = assay: (§1) Antitumor activity was evaluated against L1210 leukemia, injected intraperitoneally at a dose 40 umol/kg; assay type: functional
Mus musculus [21] = assay: Antitumor activity was evaluated against L1210 leukemia, injected intravenously at a dose 40 umol/kg; assay type: functional
Mus musculus [22] = assay: Antitumor activity was evaluated against L1210 leukemia, injected intravenously at a dose 80 umol/kg; assay type: functional
Mus musculus [23] = assay: Antitumor activity was evaluated against L1210 leukemia, injected intraperitoneally at a dose 295 umol/kg; assay type: functional
Mus musculus [24] = assay: Antitumor activity was evaluated against L1210 leukemia, injected intravenously at a dose 235 umol/kg; assay type: functional
L1210 [25] = assay: as §1; assay type: functional, Mus musculus
Mus musculus [26] = assay: Number of survivors/ number of animals tested at the dose of 40 mg/Kg; 2/6; assay type: functional
Mus musculus [27] = assay: Number of survivors/ number of animals tested at the dose of 80 mg/Kg; 6/6; assay type: functional
Mus musculus [28] = assay: Number of survivors/ number of animals tested at the dose of 210 mg/Kg; 0/6; assay type: functional
Mus musculus [29] = assay: Number of survivors/ number of animals tested at the dose of 210 mg/Kg; 3/6; assay type: functional
Mus musculus [30] = assay: Number of survivors/ number of animals tested at the dose of 125 mg/Kg, iv; 6/6; assay type: functional
Mus musculus [31] = assay: Number of survivors/ number of animals tested at the dose of 125 mg/Kg; 6/6; assay type: functional
Mus musculus [32] = assay: Number of survivors/ number of animals tested at the dose of 165 mg/Kg; 5/6; assay type: functional
Mus musculus [33] = assay: Number of survivors/ number of animals tested at the dose of 165 mg/Kg; 6/6; assay type: functional
Mus musculus [34] = assay: Antitumor activity was evaluated against L1210 leukemia, injected intraperitoneally at a dose 210 umol/kg; assay type: functional
Mus musculus [35] = assay: Antitumor activity was evaluated against L1210 leukemia, injected intraperitoneally at a dose 115 umol/kg; infinity-50-100%survivals; assay type: functional, organism-based
Mus musculus [36] = assay: Antitumor activity was evaluated against L1210 leukemia, injected intraperitoneally at a dose 155 umol/kg; infinity-50-100%survivals; assay type: functional, organism-based
Mus musculus [37] = assay: Antitumor activity was evaluated against L1210 leukemia, injected intraperitoneally at a dose 195 umol/kg; infinity-50-100%survivals; assay type: functional, organism-based
Mus musculus [38] = assay: Antitumor activity was evaluated against L1210 leukemia, injected intravenously at a dose 115 umol/kg; infinity-50-100%survivals; assay type: functional, organism-based
Mus musculus [39] = assay: Antitumor activity was evaluated against L1210 leukemia, injected intravenously at a dose 155 umol/kg; infinity-50-100%survivals; assay type: functional, organism-based
Mus musculus [40] = assay: Antitumor activity was evaluated against L1210 leukemia, injected intravenously at a dose 195 umol/kg; infinity-50-100%survivals; assay type: functional, organism-based
L1210 [41] = assay: Number of survivors/ number of animals tested at the dose of 80 mg/Kg, iv; 1/6; assay type: functional, Mus musculus
L1210 [42] = assay: Number of survivors/ number of animals tested at the dose of 60 mg/Kg, iv; 6/6; assay type: functional, Mus musculus
L1210 [43] = assay: Number of survivors/ number of animals tested at the dose of 120 mg/Kg, iv; 0/6; assay type: functional, Mus musculus
L1210 [44] = assay: (§2) Number of survivors/ number of animals tested at the dose of 20 mg/Kg, iv; 0/6; assay type: functional, Mus musculus
L1210 [45] = assay: (§3) Number of survivors/ number of animals tested at the dose of 40 mg/Kg, iv; 6/6; assay type: functional, Mus musculus
Mus musculus [46] = assay: Antitumor activity was evaluated against L1210 leukemia, injected intravenously at a dose 20 umol/kg; assay type: functional
Mus musculus [47] = assay: Antitumor activity was evaluated against L1210 leukemia, injected intravenously at a dose 120 umol/kg; assay type: functional
Mus musculus [48] = assay: as §3; assay type: functional
Mus musculus [49] = assay: Number of survivors/ number of animals tested at the dose of 60 mg/Kg, iv; 4/6; assay type: functional
Mus musculus [50] = assay: as §2; assay type: functional
Mus musculus [51] = assay: Antitumor activity was evaluated against L1210 leukemia, injected intravenously at a dose umol/kg; assay type: functional
Mus musculus [52] = assay: Antitumor activity was evaluated against L1210 leukemia, injected intravenously at a dose umol/kg, survivors/6; assay type: functional
Mus musculus [53] = assay: Antitumor activity was evaluated against L1210 leukemia, injected intravenously at a dose umol/kg; infinity-50-100%survivals; assay type: functional, organism-based
L1210 [54] = assay: Antitumor activity was evaluated against L1210 leukemia, injected intraperitoneally at a dose 120 umol/kg; assay type: functional, Mus musculus
L1210 [55] = assay: Antitumor activity was evaluated against L1210 leukemia, injected intraperitoneally at a dose 25 umol/kg; assay type: functional, Mus musculus
L1210 [56] = assay: Antitumor activity was evaluated against L1210 leukemia, injected intraperitoneally at a dose 50 umol/kg; infinity-50-100%survivals; assay type: functional, cell-based; conditions: Mus musculus
L1210 [57] = assay: Antitumor activity was evaluated against L1210 leukemia, injected intraperitoneally at a dose 75 umol/kg; infinity-50-100%survivals; assay type: functional, cell-based; conditions: Mus musculus
L1210 [58] = assay: Antitumor activity was evaluated against L1210 leukemia, injected intraperitoneally at a dose 95 umol/kg; infinity-50-100%survivals; assay type: functional, cell-based; conditions: Mus musculus
L1210 [59] = assay: Number of survivors/ number of animals tested at the dose of 95 mg/Kg; 3/6; assay type: functional, Mus musculus
L1210 [60] = assay: Number of survivors/ number of animals tested at the dose of 50 mg/Kg; 6/6; assay type: functional, Mus musculus
L1210 [61] = assay: Number of survivors/ number of animals tested at the dose of 75 mg/Kg; 6/6; assay type: functional, Mus musculus
L1210 [62] = assay: Number of survivors/ number of animals tested at the dose of 25 mg/Kg; 0/6; assay type: functional, Mus musculus
L1210 [63] = assay: Number of survivors/ number of animals tested at the dose of 125 mg/Kg; 0/6; assay type: functional, Mus musculus

C[S+]([O-])CCN(N=O)C(=O)NCCCl (stereo unspecified)
T/C x100 (Mus musculus [1]): <125

C[S+]([O-])CCN(N=O)C(=O)NCCCl.C[S+]([O-])CCNC(=O)N(CCCl)N=O (stereo unspecified) [listing 1 of 2 here]
T/C x100 (Mus musculus [2]): infinity-50-100%survivals
T/C x100 (Mus musculus [3]): infinity-50-100%survivals
T/C x100 (Mus musculus [4]): infinity-50-100%survivals
T/C x100 (Mus musculus [5]): infinity-50-100%survivals
T/C x100 (Mus musculus [6]): infinity-50-100%survivals
T/C x100 (Mus musculus [7]): infinity-50-100%survivals

CS(=O)(=O)CCN(N=O)C(=O)NCCCl.CS(=O)(=O)CCNC(=O)N(CCCl)N=O [listing 1 of 2 here]
Survivors (Mus musculus [8]): 0
Survivors (Mus musculus [9]): 5
Survivors (Mus musculus [10]): 0
Survivors (Mus musculus [11]): 0
Survivors (Mus musculus [12]): 5
Survivors (Mus musculus [13]): 0
Survivors (Mus musculus [14]): 6
Survivors (Mus musculus [15]): 6
Survivors (Mus musculus [16]): 6
Survivors (Mus musculus [17]): 6
Survivors (Mus musculus [18]): 5
Survivors (Mus musculus [19]): 5
T/C x100 (Mus musculus [20]): 190
T/C x100 (Mus musculus [21]): 190
T/C x100 (Mus musculus [22]): 230
T/C x100 (Mus musculus [23]): 410
T/C x100 (Mus musculus [24]): 290

C[S+]([O-])CCN(N=O)C(=O)NCCCl.C[S+]([O-])CCNC(=O)N(CCCl)N=O (stereo unspecified) [listing 2 of 2 here]
T/C x100 (L1210 [25]): 300
Survivors (Mus musculus [8]): 0
Survivors (Mus musculus [26]): 2
Survivors (Mus musculus [10]): 0
Survivors (Mus musculus [27]): 6
Survivors (Mus musculus [28]): 0
Survivors (Mus musculus [29]): 3
Survivors (Mus musculus [30]): 6
Survivors (Mus musculus [31]): 6
Survivors (Mus musculus [32]): 5
Survivors (Mus musculus [33]): 6
T/C x100 (Mus musculus [21]): 170
T/C x100 (Mus musculus [22]): 270
T/C x100 (Mus musculus [34]): 295

CS(=O)(=O)CCN(N=O)C(=O)NCCCl.CS(=O)(=O)CCNC(=O)N(CCCl)N=O [listing 2 of 2 here]
T/C x100 (Mus musculus [35]): infinity-50-100%survivals
T/C x100 (Mus musculus [36]): infinity-50-100%survivals
T/C x100 (Mus musculus [2]): infinity-50-100%survivals
T/C x100 (Mus musculus [37]): infinity-50-100%survivals
T/C x100 (Mus musculus [38]): infinity-50-100%survivals
T/C x100 (Mus musculus [39]): infinity-50-100%survivals
T/C x100 (Mus musculus [40]): infinity-50-100%survivals

CS(=O)(=O)CCNC(=O)N(CCCl)N=O
Survivors (L1210 [41]): 1
Survivors (L1210 [42]): 6
Survivors (L1210 [43]): 0
Survivors (L1210 [44]): 0
Survivors (L1210 [45]): 6
T/C x100 (Mus musculus [46]): 200
T/C x100 (Mus musculus [22]): 300
T/C x100 (Mus musculus [47]): 190

CS(=O)(=O)CCN(N=O)C(=O)NCCCl
T/C x100 (Mus musculus [1]): <125

C[S+]([O-])CCNC(=O)N(CCCl)N=O (stereo unspecified)
Survivors (Mus musculus [48]): 6
Survivors (Mus musculus [49]): 4
Survivors (Mus musculus [10]): 0
Survivors (Mus musculus [50]): 0
T/C x100 (Mus musculus [51]): 190
T/C x100 (Mus musculus [52]): 190
T/C x100 (Mus musculus [53]): infinity-50-100%survivals

O=NN(CCCl)C(=O)NCCSSCCN(N=O)C(=O)NCCCl.O=NN(CCSSCCN(N=O)C(=O)NCCCl)C(=O)NCCCl
T/C x100 (L1210 [54]): 125
T/C x100 (L1210 [55]): 250
T/C x100 (L1210 [56]): infinity-50-100%survivals
T/C x100 (L1210 [57]): infinity-50-100%survivals
T/C x100 (L1210 [58]): infinity-50-100%survivals
Survivors (L1210 [59]): 3
Survivors (L1210 [60]): 6
Survivors (L1210 [61]): 6
Survivors (L1210 [62]): 0
Survivors (L1210 [63]): 0
